Measured values taken from PubChem BioAssay AID1238 (The Scripps Research Institute Molecular Screening Center, 2008).
Calls of active or inactive are those of the source. How the calls were made is not given here.

test system: beta-lactamase reporter cell line, FRET read-out, counterscreen; assay: nonspecific beta-lactamase reporter inhibition – cell-based, FRET readout, counter-screen for GALR2 antagonist project, dose response (AID 1238)

SMILES | IC50
CC(=O)c1c(C)[nH]c(C(=O)OCCCCN2C(=O)c3ccccc3C2=O)c1C | > 42 µM (inactive)
CCn1c2ccc(C)cc2c2nc3cc(C(=O)O)ccc3nc21 | > 42 µM (inactive)
O=C(/C=C/c1ccc(Cl)cc1)NC(=S)Nc1ccc(NC(=O)c2ccco2)cc1 | > 14 µM (inactive)
c1cnc2c(c1)ccc1cccnc12 | > 42 µM (inactive)
Cc1cccc(C(=O)Nc2ccc(C(=O)/C=C/c3cccnc3)cc2)c1 | 17.9 µM (inactive)
CCOC(=O)c1ccc(N2C(=O)CC(N3CCC(O)(c4ccc(Br)cc4)CC3)C2=O)cc1 (stereo not drawn) | > 42 µM (inactive)
c1ccc2c(c1)[nH]c1c(NCC3CCCO3)ncnc12 (stereo not drawn) | > 42 µM (inactive)
C1=C(CCNc2ncnc3c2[nH]c2ccccc23)CCCC1 | > 42 µM (inactive)
CCCCOc1ncnc2c1[nH]c1ccc(F)cc12 | > 42 µM (inactive)
Cc1ccc2[nH]c3c(N4CCc5ccccc5C4)ncnc3c2c1 | > 42 µM (inactive)
CNc1nc2cc([N+](=O)[O-])c([N+](=O)[O-])cc2nc1NC | > 42 µM (inactive)
CC(=O)c1c(C)[nH]c(C(=O)OCC(=O)Nc2ccc(Cl)cc2[N+](=O)[O-])c1C | > 42 µM (inactive)
CCCOc1ncnc2c1[nH]c1ccccc12 | > 42 µM (inactive)
COc1cc(/C=C/[N+](=O)[O-])ccc1O | 11.1 µM (inactive)
O=[N+]([O-])c1cc(-c2ncccn2)c([N+](=O)[O-])s1 | 9.61 µM
CN(C)c1ccc(NC2=C(Cl)C(=O)c3ccccc3C2=O)cc1 | > 14 µM (inactive)
Cc1cc(C(=O)CSc2nc3ccccc3[nH]2)c(C)n1CC1CCCO1 (stereo not drawn) | > 42 µM (inactive)
Cc1cc(C)c(S(=O)(=O)NCc2ccncc2)c(C)c1 | > 42 µM (inactive)
N#C/C(=C\c1cccs1)c1nc2ccccc2[nH]1 | > 42 µM (inactive)
CN(C(=S)NC1CCCCC1)C1(c2ccccc2Cl)CCCCC1=O (stereo not drawn) | > 42 µM (inactive)
Cc1sc2ncnc(NCCc3ccc(S(N)(=O)=O)cc3)c2c1C | > 42 µM (inactive)
CCOC(=O)c1cc([N+](=O)[O-])c([N+](=O)[O-])cc1NC(C)=O | 7.53 µM

SMILES | IC50
O=C(Cn1ncc(Cl)c(Cl)c1=O)N1CCN(S(=O)(=O)c2ccc3ccccc3c2)CC1 | > 14 µM (inactive)
Cc1cc(Nc2cccc(Cl)c2)nc(NCc2ccccc2)n1 | > 14 µM (inactive)
COC(=O)c1ccc(COC(=O)c2[nH]c(C)c(C(C)=O)c2C)o1 | > 42 µM (inactive)
CCOC(=O)COc1ccc(S(=O)(=O)NCc2ccncc2)cc1 | > 42 µM (inactive)
O=C(/C=C/Sc1ncn[nH]1)c1ccc(Cl)cc1 | 17 µM (inactive)
CC(=O)SC(C[N+](=O)[O-])c1cn(C(C)=O)c2ccccc12 (stereo not drawn) | 17.1 µM (inactive)
O=S(=O)(NCc1ccncc1)c1ccc(Br)s1 | > 42 µM (inactive)
CC1CCC/C=C/C2CC(O)CC2C(O)/C=C/C(=O)O1 (stereo not drawn) | > 42 µM (inactive)
COc1ccc(CCNc2c(C)c(C)nc3ncnn23)cc1 | > 42 µM (inactive)
Cc1ccc(S(=O)(=O)NCc2ccncc2)cc1 | > 42 µM (inactive)
Cc1nnc(SCC(=O)Nc2cccc(S(=O)(=O)N(C)c3ccccc3)c2)s1 | > 42 µM (inactive)
CCc1ccccc1NC(=O)CN(C)C(=O)Cn1ncc(Cl)c(Cl)c1=O | 17.1 µM (inactive)
Cc1nc2ccc(NC(=O)c3cc(S(=O)(=O)N(C)c4ccccc4)ccc3Cl)cc2s1 | > 42 µM (inactive)
O=C(Nc1ccc2nc(-c3cccnc3)[nH]c2c1)C12CC3CC(CC(C3)C1)C2 | > 42 µM (inactive)
Cc1ccc(S(=O)(=O)CC2CSc3nc4ccccc4n32)cc1 (stereo not drawn) | > 42 µM (inactive)
CC(=O)Nc1ccccc1OCC(=O)c1cc(C)n(Cc2cccs2)c1C | > 42 µM (inactive)
CCOc1ccc(S(=O)(=O)NCc2ccncc2)cc1 | > 42 µM (inactive)
CCOC(=O)N1CCN(c2ncnc3c2[nH]c2ccc(F)cc23)CC1 | > 42 µM (inactive)
c1ccc2c(c1)OCC(CNc1ncnc3sccc13)O2 (stereo not drawn) | > 42 µM (inactive)
O=C(Cc1cccs1)Nc1cccc(-c2nc3cc4ccccc4cc3[nH]2)c1 | > 42 µM (inactive)
Cn1nc(C(C)(C)C)cc1C(=O)NCc1ccc(N2CCCC2=O)cc1 | > 42 µM (inactive)
